One experiment concerns the target FGFR2 (Homo sapiens (Human), UniProt P21802). In words: Biochemical FGFR2 Caliper assay.
The next experiment concerns SNU-16. As to the kind of experiment: Cell SNU-16 assay. Format: cell-based.
The mark [1] stands for this setting: Homo sapiens, SNU-16, SNU-16 cells.

pIC50: −log10 of the molar value.

What is called pIC50 is −log10 of the IC50, conventionally taken in molar units. A higher pIC50 goes with a low IC50.

FGFR2, sequence (P21802 22-821): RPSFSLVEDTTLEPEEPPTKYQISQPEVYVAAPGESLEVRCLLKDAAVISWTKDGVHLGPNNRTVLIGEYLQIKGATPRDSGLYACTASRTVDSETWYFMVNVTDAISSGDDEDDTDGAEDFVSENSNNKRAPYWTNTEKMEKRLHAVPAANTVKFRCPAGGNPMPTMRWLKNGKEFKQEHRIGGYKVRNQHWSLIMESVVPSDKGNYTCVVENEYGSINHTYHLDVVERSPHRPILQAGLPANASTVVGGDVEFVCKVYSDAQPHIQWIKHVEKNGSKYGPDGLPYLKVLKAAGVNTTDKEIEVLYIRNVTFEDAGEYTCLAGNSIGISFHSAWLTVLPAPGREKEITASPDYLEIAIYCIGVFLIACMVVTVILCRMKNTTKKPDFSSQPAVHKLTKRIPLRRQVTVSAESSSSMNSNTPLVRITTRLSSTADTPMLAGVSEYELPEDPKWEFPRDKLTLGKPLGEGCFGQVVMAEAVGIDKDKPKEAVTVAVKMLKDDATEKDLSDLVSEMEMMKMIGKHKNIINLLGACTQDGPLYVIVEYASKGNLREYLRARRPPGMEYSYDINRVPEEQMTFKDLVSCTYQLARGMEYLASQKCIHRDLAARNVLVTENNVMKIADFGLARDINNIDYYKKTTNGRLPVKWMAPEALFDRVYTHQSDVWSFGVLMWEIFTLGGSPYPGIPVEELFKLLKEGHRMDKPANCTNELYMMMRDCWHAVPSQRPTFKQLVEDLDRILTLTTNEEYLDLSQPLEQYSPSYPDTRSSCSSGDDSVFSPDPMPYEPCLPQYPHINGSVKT

Take `C=CC(=O)N1CCC(c2c(-c3ccc(Oc4cccc(C)n4)cc3)c3c(N)ncnc3n2C)C1(C)C` (stereo not drawn) [Example 844]: the negative logarithm of the IC50 (pIC50) against FGFR2 and in the experiment on SNU-16 (setting [1]) was 4.00 to 6.00 in each case.

As to `C#Cc1ncc(-c2c(-c3ccc(Oc4nccc(C)n4)cc3)c3c(N)ncnc3n2C)c(C)c1F` [Example 1164], the negative logarithm of the IC50 (pIC50) is more than 7.00 at FGFR2 and not below 7.00 in the experiment with SNU-16 (setting [1]).

For `C=C(C)C(=O)Nc1ccc(-c2c(C3=CC[C@H](C(=O)N4CCC[C@H]4C)CC3)c3c(N)ncnc3n2C)c(C)c1` [Example 1481], the pIC50 against FGFR2 is 6.00 to 6.60; with SNU-16 (setting [1]) it was 6.60 to 7.00.

In the case of `C=CC(=O)N1CCC(n2cc(-c3c(-c4ccc(C(=O)N(C)Cc5nc(C)no5)cc4)c4c(N)ncnc4n3C)cn2)CC1` [Example 849], the negative-log IC50 (pIC50) is 6.60 to 7.00 on FGFR2 and 6.00 to 6.60 with SNU-16 (setting [1]).

Consider `Cn1c(-c2ccc(NC(=O)[C@@H]3CN3)cc2)c(-c2ccc(C(=O)N3CCCC3)cc2)c2c(N)ncnc21` (single isomer, unassigned) [Example 899], for which the negative logarithm of the IC50 (pIC50) at FGFR2 and in the experiment with SNU-16 (setting [1]) was 4.00 to 6.00 each time.

As to `C#Cc1ccc(-c2c(C3=CC[C@H](C(=O)N4CCC[C@H]4COC)CC3)c3c(N)ncnc3n2C)c(C)n1` (single isomer, unassigned) [Example 1204], the values for the negative-log IC50 (pIC50) against FGFR2 and with SNU-16 (setting [1]) were more than 7.00 and not below 7.00, respectively.

Turning to `C=C(C)C(=O)Nc1ccc(-c2c(C3=CC[C@@H](C(=O)N4CCC[C@H]4C)CC3)c3c(N)ncnc3n2C)cc1` [Example 1008], the negative-log IC50 (pIC50) on FGFR2 and with SNU-16 (setting [1]) was 6.60 to 7.00 throughout.

Consider `C=C(C)C(=O)Nc1ccc(-c2c(-c3ccc4[nH]ccc4c3)c3c(N)ncnc3n2C)cc1` [Example 1296], for which the pIC50 is 6.60 to 7.00 at FGFR2 and 6.00 to 6.60 in the experiment on SNU-16 (setting [1]).

As to `C=C(C)C(=O)Nc1ccc(-c2c(C3=CC[C@](C)(C(=O)N4CCCC4)CC3)c3c(N)ncnc3n2C)cc1` [Example 1024], the pIC50 at FGFR2 and in the experiment with SNU-16 (SNU-16 cells) was 6.00 to 6.60 throughout.

On to `C=C(C)C(=O)Nc1ccc(-c2c(C3=CC[C@@H](C(=O)N4CCC[C@]45CCOC5)CC3)c3c(N)ncnc3n2C)cc1` (single isomer, unassigned) [Example 954], for which the negative-log IC50 (pIC50) is more than 7.00 against FGFR2 and not below 7.00 in the experiment with SNU-16 (SNU-16 cells).

Consider `C#Cc1cc(C)c(-c2c(C3=CC[C@@H](C(=O)N4CCC[C@H]4C#N)CC3)c3c(N)ncnc3n2C)cn1` [Example 1252], for which the values for the negative-log IC50 (pIC50) against FGFR2 and with SNU-16 (setting [1]) were more than 7.00 and not below 7.00, respectively.

As for `C=CC(=O)NC(C)(C)c1ccc(-c2c(-c3ccc(Oc4nccc(C)n4)cc3)c3c(N)ncnc3n2C)cc1` [Example 943], the negative logarithm of the IC50 (pIC50) on FGFR2 and in the experiment with SNU-16 (setting [1]) was 6.00 to 6.60 in each case.

For `C=C(C)C(=O)Nc1ccc(-c2c(C3=CC[C@@H](C(=O)N4CCCC4)C[C@@H]3C)c3c(N)ncnc3n2C)cc1` [Example 937], the pIC50 on FGFR2 and in the experiment on SNU-16 (setting [1]) was 4.00 to 6.00 in each case.

In the case of `C#Cc1cnc2cc(-c3c(-c4ccc(Oc5nccc(C)n5)c(F)c4)c4c(N)ncnc4n3C)ccc2c1` [Example 1425], the pIC50 against FGFR2 and in the experiment on SNU-16 (setting [1]) was 4.00 to 6.00 throughout.

As to `C=CC(=O)Nc1ccc(-c2c(-c3ccc(C(=O)NC4CCC4)c(OC)c3)c3c(N)ncnc3n2C)cc1` [Example 1074], the pIC50 was more than 7.00 at FGFR2 and not below 7.00 with SNU-16 (setting [1]).

Take `C=C(C)C(=O)Nc1ccc(-c2c(C3=CCN(C(=O)C4CCCC4)CC3)c3c(N)ncnc3n2C)cc1` [Example 922]: the pIC50 against FGFR2 and in the experiment on SNU-16 (setting [1]) was 6.00 to 6.60 throughout.

For the compound `C#Cc1ccc(-c2c(-c3ccc(Oc4nccc(C)n4)cc3F)c3c(N)ncnc3n2C)c(C)n1` [Example 1197], the figures for the pIC50 at FGFR2 and in the experiment on SNU-16 (setting [1]) were more than 7.00 and not below 7.00, respectively.

As for `C#Cc1nc2cc(-c3c(-c4ccc(Oc5nccc(C)n5)c(F)c4)c4c(N)ncnc4n3C)c(F)cc2n1C` [Example 1388], the negative logarithm of the IC50 (pIC50) against FGFR2 was more than 7.00; with SNU-16 (setting [1]), not below 7.00.

On to `C=CC(=O)Nc1ccc(-c2c(-c3ccc(Oc4nccc(C)n4)c(F)c3)c3c(C)ncnc3n2C)c(Cl)c1` [Example 1094], for which the pIC50 against FGFR2 was more than 7.00; in the experiment on SNU-16 (setting [1]) it was not below 7.00.

Consider `C#Cc1cc(OC)c(-c2c(-c3ccc(Oc4nccc(C)n4)c(F)c3)c3c(N)ncnc3n2C)cn1` [Example 1433], for which the values for the pIC50 against FGFR2 and with SNU-16 (setting [1]) were more than 7.00 and not below 7.00, respectively.

`C#Cc1ncc(-c2c(-c3ccc(Oc4nccc(C)n4)c(Cl)c3)c3c(N)ncnc3n2C)c(C)c1F` [Example 1264]: the pIC50 was more than 7.00 at FGFR2 and not below 7.00 in the experiment with SNU-16 (setting [1]).

Regarding `Cc1ccnc(Oc2ccc(-c3c(-c4ccc(NCC5CO5)cc4)n(C)c4ncnc(N)c34)cc2)n1` (stereo not drawn) [Example 948], the pIC50 against FGFR2 and with SNU-16 (setting [1]) was 4.00 to 6.00 throughout.

With `C=CC(=O)Nc1cc(-c2c(-c3ccc(Oc4cccc(C)n4)cc3)c3c(N)ncnc3n2C)n(C)n1` [Example 1098], the results for the pIC50 on FGFR2 and in the experiment on SNU-16 (setting [1]) were more than 7.00 and not below 7.00, respectively.

With `C#Cc1cc(C)c(-c2c(-c3ccc(Oc4nccc(C)n4)c(F)c3)c3c(C)ncnc3n2C)cn1` [Example 1163], the pIC50 is more than 7.00 against FGFR2 and not below 7.00 in the experiment on SNU-16 (setting [1]).

On to `C#Cc1cc(C)c(-c2c(-c3ccc(Oc4nccc(C)n4)c(F)c3)c3c(C)ncnc3n2C)c(C)n1` [Example 1406], for which the pIC50 is more than 7.00 at FGFR2 and not below 7.00 in the experiment on SNU-16 (setting [1]).

Turning to `C=C(C)C(=O)Nc1ccc(-c2c(-c3ccc(Oc4cccc(C)n4)cc3)c3c(N)ncnn3c2C#N)cc1` [Example 824], the negative logarithm of the IC50 (pIC50) on FGFR2 is 6.60 to 7.00; with SNU-16 (setting [1]), 6.00 to 6.60.

As for `C=C(C)C(=O)Nc1ccc(-c2c(-c3ccc4cccnc4c3)c3c(N)ncnc3n2C)cc1` [Example 1277], the negative-log IC50 (pIC50) was 6.00 to 6.60 against FGFR2 and 4.00 to 6.00 in the experiment with SNU-16 (setting [1]).

In the case of `C=C(C)C(=O)Nc1cc(C)c(-c2c(-c3ccc(Oc4cccc(C)n4)c(F)c3)c3c(N)ncnc3n2C)cn1` [Example 1091], the negative-log IC50 (pIC50) against FGFR2 and in the experiment with SNU-16 (setting [1]) was 4.00 to 6.00 each time.

Turning to `C=C(C)C(=O)Nc1ccc(-c2c(-c3ccc(NC(=O)OCC)nc3)c3c(N)ncnc3n2C)cc1` [Example 1303], the negative-log IC50 (pIC50) at FGFR2 and in the experiment with SNU-16 (setting [1]) was 4.00 to 6.00 in each case.

In the case of `C#Cc1cc(OC)c(-c2c(C3=CC[C@@H](C(=O)N4CCC[C@H]4C#N)CC3)c3c(C)ncnc3n2C)c(C)n1` [Example 1476], the values for the pIC50 against FGFR2 and with SNU-16 (SNU-16 cells) were 4.00 to 6.00 and 6.00 to 6.60, respectively.

Take `C=C(C)C(=O)Nc1ccc(-c2c(C3=CC[C@@H](C(=O)NCC4(F)COC4)CC3)c3c(N)ncnc3n2C)cc1` [Example 1022]: the pIC50 is 6.00 to 6.60 on FGFR2 and 4.00 to 6.00 with SNU-16 (setting [1]).

Turning to `Cc1ccnc(Oc2ccc(-c3c([C@@H]4CCN(C(=O)CCl)C4)n(C)c4ncnc(N)c34)cc2)n1` (single isomer, unassigned) [Example 875], the pIC50 against FGFR2 and in the experiment on SNU-16 (setting [1]) was 6.00 to 6.60 in each case.

`C#Cc1ncc(-c2c(C3=CC[C@H](C(=O)N4CCCC4)CC3)c3c(C)ncnc3n2C)c(C)n1` (single isomer, unassigned) [Example 1169]: the pIC50 was more than 7.00 at FGFR2 and not below 7.00 in the experiment with SNU-16 (setting [1]).

As for `C=C(C)C(=O)Nc1ccc(-c2c(C3=CC[C@H](C(=O)N4CCCC4)C[C@H]3C)c3c(N)ncnc3n2C)cc1` (single isomer, unassigned) [Example 938], the negative logarithm of the IC50 (pIC50) at FGFR2 and in the experiment with SNU-16 (setting [1]) was 4.00 to 6.00 throughout.

Take `C=C(C)C(=O)Nc1ccc(-c2c(C3=CCC(S(=O)(=O)C4CCCC4)CC3)c3c(N)ncnc3n2C)cc1` (stereo not drawn) [Example 1047]: the pIC50 against FGFR2 and with SNU-16 (setting [1]) was 6.00 to 6.60 throughout.

Turning to `C=CC(=O)N1CCC(c2c(-c3ccc(N4CCCC4=O)nc3)c3c(N)ncnc3n2C)C1` (stereo not drawn) [Example 798], the values for the pIC50 against FGFR2 and with SNU-16 (setting [1]) were 6.00 to 6.60 and 4.00 to 6.00, respectively.

These data come from patent US11780845B2 (Relay Therapeutics, Inc., priority 2019, dated 2023).
